Source: patent EP2999467B1, “USE OF A COMBINATION OF TWO COMPOUNDS FOR THE TREATMENT AND/OR PREVENTION OF BONE DISORDERS” (Institut National de la Recherche Agronomique (INRA), priority 2013, dated 2014)

Legend:
RAW264.7 = experiment: TRAP staining: RANKL-induced osteoclast differentiation, count of multinucleated TRAP+ cells; assay type: cell-based
Excerpt: Les préostéoblastes primaires ont été isolés à partir de la calotte crânienne de rats Wistar nouveaux-nés par digestion enzymatique comme précédemment décrit [Declercq, H., Van den Vreken, N., De Maeyer, E., Verbeeck, R., Schacht, E., De Ridder, L., and Cornelissen, M. (2004). Isolation, proliferation and differentiation of osteoblastic cells to study cell/biomaterial interactions: comparison of different isolation techniques and source. Biomaterials 25, 757-68.]. Les précurseurs d'ostéoclastes RAW264.7 ont été obtenus auprès de l'ATCC (Manassas, VA, USA). Les préostéoblastes et les RAW264.7 ont été cultivés dans du milieu α-MEM (Invitrogen, Carlsbad, CA, USA) supplémenté avec 10% de SVF décomplémenté et de 100 unités/ml de pénicilline-streptomycine.
Pour la coloration TRAP, 60.000 cellules RAW264.7 ont été ensemencées dans des puits de plaques 12 puits pendant 12 heures puis traitées avec du DMSO/éthanol comme témoin ou de la fisétine (5 µM dans le DMSO) ou du DHA (50µM dans l'éthanol) ou la combinaison des deux (Fisétine 5 µM et DHA 50 µM) pendant 3 heures. Les cellules ont ensuite été induites à se différencier en présence de RANKL (50 ng/ml) avec du DMSO/éthanol ou de la fisétine (5 µM) ou du DHA (50 µM) ou la combinaison des deux (Fisétine 5 µM et DHA 50 µM) durant 4 jours avec un changement de milieux après 2 jours. De la BSA délipidée et sans endotoxines a été utilisée pour solubiliser le DHA avec un rapport 1/5 (BSA/DHA).
La coloration TRAP a été réalisée en utilisant le kit « leukocyte acid phosphatase » (Sigma-Aldrich) selon les recommandations du fournisseur après fixation des cellules. Les cellules TRAP+ multinucléées ont ensuite été comptées.

[1] = test system: perte osseuse induite par ovariectomie; experiment: Ovariectomy-induced bone loss: bone micro-architecture (micro-CT); assay type: in vivo, souris C57BL/6J
Experimental: (§1) Tout au long de l'étude, les animaux ont été logés dans un environnement contrôlé (12:12 h cycle lumière-obscurité, 20-22 ° C, 50-60% d'humidité relative, 1 souris par cage en plastique avec un accès libre à l'eau. Les souris C57BL/6J ont été livrées 2 semaines avant l'étude pour l'acclimatation à notre environnement sous régime standard semi-purifié. Pour toutes les expériences, les souris de 8 semaines (n=12/groupe) ont été gavées avec le véhicule (1% d'éthanol, 0,2% hydroxypropylcellulose dans de l'eau distillée) ou avec la fisétine (5 à 50 mg/kg dans le véhicule) pendant une semaine. Ensuite, pour l'expérience OVX, les souris ont été pseudo-opérées ou ovariectomisées bilatéralement et ont reçu quotidiennement par gavage le véhicule ou la fisétine pendant 4 semaines. A la fin de l'expérimentation, le sérum, les cornes utérines, les tibias et les fémurs ont été recueillis pour analyse. Pour l'expérience de perte osseuse induite par LPS, le véhicule (PBS) ou le LPS (sérotype 026: B6, 25mg/kg) ont été injectés par voie sous-cutanée au niveau de la calotte crânienne, une fois par semaine pendant 3 semaines sous anesthésie. Durant ces 3 semaines, les souris ont reçu soit le véhicule (1% d'éthanol, 0,2% hydroxypropylcellulose dans de l'eau distillée) soit la fisétine quotidiennement par gavage. A la fin de l'expérimentation, le sérum, les tibias et les fémurs ont été recueillis pour analyse. Des expériences similaires ont été conduites et arrêtés 24 heures après la première injection de LPS et les fémurs ont été prélevés pour extraction des ARNs et l'analyse en qRT-PCR.
Pour effectuer une mesure, l'échantillon a été monté sur un plateau tournant pouvant être déplacé automatiquement dans le sens axial (pas angulaire: 0,675°/reconstruction plage angulaire: 186.30°). Un filtre en aluminium (0,5 mm d'épaisseur) a été placé entre la source de rayons X et l'échantillon. La micro-architecture (spongieuse secondaire) a été analysée en utilisant le rayonnement X micro-CT SkyScan 1072 (BRUKER-microCT, Kontich, Belgique). Des photos de 1024 * 1024 pixels ont été obtenues en utilisant les paramètres 37kV et 215µA. Selon les paramètres de la caméra, les pixels mesurent 5.664µm menant à un voxel de 1.817 * 10-7mm^3. Le calcul des paramètres histomorphométriques a été réalisé en utilisant les logiciels ctan ® et Nrecon ® (version 1.11. Et 1.6.1.7 respectivement).

[2] = test system: perte osseuse induite par ovariectomie; experiment: Ovariectomy-induced bone loss: trabecular bone mineral density of femur (CT); assay type: in vivo, souris C57BL/6J; settings: OVX mice, Fisétine 25mg/kg daily by gavage; OVX without fisetin -15%
Experimental: as §1, with “A la fin de l'expérimentation, le sérum, les tibias et les fémurs ont été recueillis pour analyse. Des expériences similaires ont été conduites et arrêtés 24 heures après la première injection de LPS et les fémurs ont été prélevés pour extraction des ARNs et l'analyse en qRT-PCR.” left out

O=c1c(O)c(-c2ccc(O)c(O)c2)oc2cc(O)ccc12 [Fisétine, 3,3',4',7-tétrahydroxyflavone] was tested. Which inhibition at 5 µM (RAW264.7; Mus musculus, RAW264.7, 96 h, Fisétine 5µM, RANKL 50 ng/ml, 4 days, vs RANKL condition, read-out: inhibition de l'induction par RANKL de la formation de cellules multinucléées TRAP+ (ostéoclastes)) did it give?
The inhibition at 5 µM was 45%.

What about the “ostéoclastes/cm^2” value (RAW264.7; condition RANKL+Fisétine (5µM), RANKL alone 735+/-251) of the same molecule?
Its value is 404+/-148 ostéoclastes/cm^2.

What about the “augmentation de l'épaisseur des trabécules par rapport aux animaux OVX” value ([1]; OVX + Fisétine 25 mg/kg) of the same molecule?
Its value is 3,55%.

And the “augmentation du nombre de trabécules par rapport aux animaux OVX” value ([1]; OVX + Fisétine 25 mg/kg)?
The value was 16,31%.

And the “augmentation du volume osseux/volume total par rapport aux animaux OVX” value ([1]; OVX + Fisétine 25 mg/kg)?
Its value is 20,37%.

And the “Nombre de trabécules” value ([1]; OVX + Fisétine 25mg/kg, OVX 1.90 ± 0.22)?
The value was 2.21 ± 0.12 mm^-1.

And the “Volume osseux/Volume total” value ([1]; OVX + Fisétine 25mg/kg, OVX 13.40 ± 1.74)?
The value was 16.13 ± 0.96%.

And the “Epaisseur des trabécules” value ([1]; OVX + Fisétine 25mg/kg, OVX 70.35 ± 1.295)?
The value was 72.85 ± 1.563 µm.

What about the “Espace inter-trabéculaire” value ([1]; OVX + Fisétine 25mg/kg, OVX 285.68 ± 54,69) of the same molecule?
Its value is 265.50 ± 29.41 µm.

What about the “densité minérale osseuse (DMO trabéculaire) par rapport à la condition témoin « SH »” value [2] of the same molecule?
The value was -4%.
